Results reported in patent EP4678638A1, “NEW E3 UBIQUITIN LIGASE LIGAND, PROTEIN DEGRADATION AGENT AND USE THEREOF” (priority 2023, dated 2024).
Where two headings read alike, the source gives them in different places.

What was measured:
Type in all cases: cell-based, Human
PC-9 = assay: CCK-8 proliferation, PC-9; details: read-out: Inhibitory activity (IC50) on tumor cell proliferation, PC-9
Outline: (§1)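 CCK-8 viability readout; IC50 from growth-inhibition curve fitting. Cells plated, dosed 24h later with a 10-point series, top 10µM, 5-fold steps. Culture at 37°C, 5% CO2.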

H1975 = assay: CCK-8 proliferation, NCI-H1975 (H1975); details: read-out: Inhibitory activity (IC50) on tumor cell proliferation, H1975
Outline: as §1

[1] = test system: H1975-1µM Osimertinib cells; assay: CCK-8 proliferation, osimertinib-resistant H1975 cells
Method: (§2) The tumor cells used herein were cultured in a cell culture medium listed in table A1 at 37°C in an incubator with 5% CO2. Prior to experimentation, all cell lines used were correctly identified by STR profiling, and tested negative for mycoplasma contamination using a mycoplasma detection kit through routine screenings. Table A1. Tumor cells and cell culture medium used in the present disclosure
(§3) IC50 values of the compounds of the present disclosure (including the compounds in Table 1, and compounds of examples) were measured using the Meilun Cell Counting Kit-8 kit from Dalian Meilun Biotech Co., Ltd. Assay details are as follows: tumor cells were seeded in a 96-well plate at a density listed in Table A2. After 24h, 100 µL of the inoculated cells were treated with 0.5µL of the compounds of the present disclosure (including the compounds in Tables 1 and 2, and compounds of examples) at 10 different successively decreasing concentrations (starting at the highest concentration of 10µM; 5-fold serial dilutions). After the cells were treated with the compounds of the present disclosure for a period of time, the cell viability detection reagent was added to the culture medium for cell viability assessment according to the instructions provided with the CCK-8 kit. […] The growth inhibition of the compounds of the present disclosure on cells was plotted by Prism Graphpad software, and the IC50 values of the compounds of the present disclosure were calculated therefrom. […] Seeding protocol and treatment time for tumor cells

HCC827 = assay: CCK-8 proliferation, HCC827; details: read-out: Inhibitory activity (IC50) on tumor cell proliferation, HCC827
Method: as §2, §3

EGFR = assay: Western blot degradation of EGFR (H1975 Cell); details: Table D2
Outline: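 Degradation is assessed by immunoblotting lysates of treated cells. Target bands are quantified by grayscale and normalised to an internal control, so degradation rate equals 100% minus % remaining.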

[2] = Homo sapiens, PC-9, CCK-8, 96 hours
[3] = Homo sapiens, NCI-H1975, CCK-8, 96 hours
[4] = Homo sapiens, NCI-H1975, CCK-8, osimertinib-resistant H1975 cells obtained by treating H1975 cells with 1 µM Osimertinib for 3 months, read-out: Inhibitory activity (IC50) on tumor cell proliferation, H1975-1µm Osimertinib
[5] = Homo sapiens, HCC827, CCK-8, 96 hours

For COc1cc(N2CCN(Cc3cccc(N4CCC(=O)NC4=O)c3)CC2)c(C)cc1Nc1ncc(Br)c(Nc2ccc3nccnc3c2P(C)(C)=O)n1 [GT-04206, 1-(3-((4-(4-((5-bromo-4-((5-(dimethylphosphoryl)quinoxalin-6-yl)amino)pyrimidin-2-yl)amino)-5-methoxy-2-methylphenyl)piperazin-1-yl)methyl)phenyl)dihydropyrimidine-2,4(1H,3H)-dione], the IC50 (PC-9; [2]) was 100 to 500 nM, the IC50 (H1975; [3]) was 100 to 500 nM and the IC50 [1, 4] was 100 to 500 nM. The IC50 (HCC827; [5]) was 100 to 500 nM and the “Degradation of substrate protein EGFR (substrate protein remaining %)” value (“Degradation … (substrate protein remaining %)” for short) (EGFR) was “A (A is defined as 0% ≤ substrate protein remaining % ≤ 80%)”.
For COc1cc(N2CCC(N3CCN(Cc4cccc(N5CCC(=O)NC5=O)c4)CC3)CC2)c(C)cc1Nc1ncc(Br)c(Nc2ccc3nccnc3c2P(C)(C)=O)n1 [GT-04260, 1-(3-((4-(1-(4-((5-bromo-4-((5-(dimethylphosphoryl)quinoxalin-6-yl)amino)pyrimidin-2-yl)amino)-5-methoxy-2-methylphenyl)piperidin-4-yl)piperazin-1-yl)methyl)phenyl)dihydropyrimidine-2,4(1H,3H)-dione], the IC50 (PC-9; [2]) was 50 to 100 nM, the IC50 (H1975; [3]) was 50 to 100 nM and the IC50 [1, 4] was 100 to 500 nM. The IC50 (HCC827; [5]) was 50 to 100 nM and the “Degradation … (substrate protein remaining %)” value (EGFR) was “A (A is defined as 0% ≤ substrate protein remaining % ≤ 80%)”.
In the case of COc1cc(N2CCN(Cc3ccc(N4CCC(=O)NC4=O)nc3)CC2)c(C)cc1Nc1ncc(Br)c(Nc2ccc3nccnc3c2P(C)(C)=O)n1 [GT-05947, 1-(5-((4-(4-((5-bromo-4-((5-(dimethylphosphoryl)quinoxalin-6-yl)amino)pyrimidin-2-yl)amino)-5-methoxy-2-methylphenyl)piperazin-1-yl)methyl)pyridin-2-yl)dihydropyrimidine-2,4(1H,3H)-dione], the IC50 (PC-9; [2]) is reported as 50 to 100 nM, the IC50 (H1975; [3]) is reported as 100 to 500 nM and the IC50 [1, 4] is reported as 100 to 500 nM. For the same compound, the IC50 (HCC827; [5]) was 100 to 500 nM and the “Degradation … (substrate protein remaining %)” value (EGFR) was “A (A is defined as 0% ≤ substrate protein remaining % ≤ 80%)”.
In the case of CC(C)n1nc(N2CCC(N3CCN(Cc4ccc(N5CCC(=O)NC5=O)nc4)CC3)CC2)c2cnc(Nc3ccnc(-c4cnn(S(=O)(=O)C5CC5)c4)n3)cc21 [GT-06082, 1-(5-((4-(1-(6-((2-(1-(cyclopropylsulfonyl)-1H-pyrazol-4-yl)pyrimidin-4-yl)amino)-1-isopropyl-1H-pyrazolo[4,3-c]pyridin-3-yl)piperidin-4-yl)piperazin-1-yl)methyl)pyridin-2-yl)dihydropyrimidine-2,4(1H,3H)-dione], the IC50 (PC-9; [2]) is reported as 100 to 500 nM, the IC50 (H1975; [3]) is reported as 100 to 500 nM and the IC50 [1, 4] is reported as 10 to 50 nM.
Compound COc1cc(N2CCC(N(C)Cc3ccc(C4CCC(=O)NC4=O)cc3)CC2)c(C)cc1Nc1ncc(Br)c(Nc2ccc3nccnc3c2P(C)(C)=O)n1 (stereo not shown) [GT-03930, 3-(4-(((1-(4-((5-bromo-4-((5-(dimethylphosphoryl)quinoxalin-6-yl)amino)pyrimidin-2-yl)amino)-5-methoxy-2-methylphenyl)piperidin-4-yl)(methyl)amino)methyl)phenyl)piperidine-2,6-dione] has an IC50 (PC-9; [2]) of 100 to 500 nM, an IC50 (H1975; [3]) of 50 to 100 nM and an IC50 [1, 4] of 500 to 1000 nM. The IC50 (HCC827; [5]) was 100 to 500 nM.
CC(C)n1nc(N2CCC(N3CCN(Cc4cccc(N5CCC(=O)NC5=O)c4)CC3)CC2)c2cnc(Nc3ccnc(-c4cnn(S(=O)(=O)C5CC5)c4)n3)cc21 [GT-06080, 1-(3-((4-(1-(6-((2-(1-(cyclopropylsulfonyl)-1H-pyrazol-4-yl)pyrimidin-4-yl)amino)-1-isopropyl-1H-pyrazolo[4,3-c]pyridin-3-yl)piperidin-4-yl)piperazin-1-yl)methyl)phenyl)dihydropyr imidine-2,4(1H,3H)-dione] gave an IC50 (PC-9; [2]) of 500 to 1000 nM and an IC50 [1, 4] of 500 to 1000 nM.
CC(C)n1nc(N2CCC(N(C)Cc3ccc(N4CCC(=O)NC4=O)cc3)CC2)c2cnc(Nc3ccnc(-c4cnn(S(=O)(=O)C5CC5)c4)n3)cc21 [GT-06021, 1-(4-(((1-(6-((2-(1-(cyclopropylsulfonyl)-1H-pyrazol-4-yl)pyrimidin-4-yl)amino)-1-isopropyl-1H-pyrazolo[4,3-c]pyridin-3-yl)piperidin-4-yl)(methyl)amino)methyl)phenyl)dihydropyrimidine-2,4(1H,3H)-dione] gave an IC50 (PC-9; [2]) of 100 to 500 nM, an IC50 [1, 4] of 500 to 1000 nM and an IC50 (HCC827; [5]) of 100 to 500 nM. The “Degradation … (substrate protein remaining %)” value (EGFR) was “A (A is defined as 0% ≤ substrate protein remaining % ≤ 80%)”.
For COc1cc(N2CCC(N(C)Cc3ccc(N4CCC(=O)NC4=O)cn3)CC2)c(C)cc1Nc1ncc(Br)c(Nc2ccc3nccnc3c2P(C)(C)=O)n1 [GT-05952, 1-(6-(((1-(4-((5-bromo-4-((5-(dimethylphosphoryl)quinoxalin-6-yl)amino)pyrimidin-2-yl)amino)-5-methoxy-2-methylphenyl)piperidin-4-yl)(methyl)amino)methyl)pyridin-3-yl)dihydropyrimidine-2,4(1H,3H)-dione], the IC50 (PC-9; [2]) was 100 to 500 nM, the IC50 [1, 4] was 500 to 1000 nM and the IC50 (HCC827; [5]) was 500 to 1000 nM. The “Degradation … (substrate protein remaining %)” value (EGFR) was “A (A is defined as 0% ≤ substrate protein remaining % ≤ 80%)”.
COc1cc(N2CCC(N(C)Cc3ccc(N4CCC(=O)NC4=O)cc3)CC2)c(C)cc1Nc1ncc(Br)c(Nc2ccc3nccnc3c2P(C)(C)=O)n1 [GT-05951, 1-(4-(((1-(4-((5-bromo-4-((5-(dimethylphosphoryl)quinoxalin-6-yl)amino)pyrimidin-2-yl)amino)-5-methoxy-2-methylphenyl)piperidin-4-yl)(methyl)amino)methyl)phenyl)dihydropyrimidine-2,4(1H,3H)-dione] was tested, and the IC50 (PC-9; [2]) was 100 to 500 nM, the IC50 [1, 4] was 500 to 1000 nM and the “Degradation … (substrate protein remaining %)” value (EGFR) was “A (A is defined as 0% ≤ substrate protein remaining % ≤ 80%)”.
In the case of CC(C)n1nc(N2CCC(N(C)Cc3ccc(C4CCC(=O)NC4=O)cc3)CC2)c2cnc(Nc3ccnc(-c4cnn(S(=O)(=O)C5CC5)c4)n3)cc21 (stereo not shown) [GT-06020, 3-(4-(((1-(6-((2-(1-(cyclopropylsulfonyl)-1H-pyrazol-4-yl)pyrimidin-4-yl)amino)-1-isopropyl-1H-pyrazolo[4,3-c]pyridin-3-yl)piperidin-4-yl)(methyl)amino)methyl)phenyl)piperidine-2,6-dione], the IC50 (PC-9; [2]) is reported as 50 to 100 nM, the IC50 [1, 4] is reported as 100 to 500 nM and the IC50 (HCC827; [5]) is reported as 100 to 500 nM.
For COc1cc(N2CCC(N(C)Cc3cccc(N4CCC(=O)NC4=O)c3)CC2)c(C)cc1Nc1ncc(Br)c(Nc2ccc3nccnc3c2P(C)(C)=O)n1 [GT-04214, 1-(3-(((1-(4-((5-bromo-4-((5-(dimethylphosphoryl)quinoxalin-6-yl)amino)pyrimidin-2-yl)amino)-5-methoxy-2-methylphenyl)piperidin-4-yl)(methyl)amino)methyl)phenyl)dihydropyrimidine-2,4(1H,3H)-dione], the IC50 (PC-9; [2]) was 50 to 100 nM, the IC50 (H1975; [3]) was 10 to 50 nM and the IC50 [1, 4] was 100 to 500 nM. The IC50 (HCC827; [5]) was 100 to 500 nM and the “Degradation … (substrate protein remaining %)” value (EGFR) was “A (A is defined as 0% ≤ substrate protein remaining % ≤ 80%)”.
COc1cc(N2CCC(N3CCN(CCC#Cc4cccc5c4CN(C4CCC(=O)NC4=O)C5=O)CC3)CC2)ccc1Nc1ncc(Cl)c(Nc2ccccc2P(C)(C)=O)n1 (stereo not shown) [HJM-561, reference compound] gave an IC50 (PC-9; CCK-8, 96 hours) of 100 to 500 nM, an IC50 (H1975; CCK-8, 96 hours) of 50 to 100 nM and an IC50 ([1]; CCK-8, osimertinib-resistant H1975 cells obtained by treating H1975 cells with 1 µM Osimertinib for 3 months, read-out: Inhibitory activity (IC50) on tumor cell proliferation, H1975-1µm Osimertinib) of 1000 to 5000 nM. For the same compound, the IC50 (HCC827; CCK-8, 96 hours) was 500 to 1000 nM.
In the case of O=C1CCN(c2ccc(CN3CCN(C4CCN(c5ccc(NC6=NC=C7N=C(Nc8ccccc8)N(C8CCCC8)C7N6)cc5)CC4)CC3)cn2)C(=O)N1 (stereo not shown) [GT-05942, 1-(5-((4-(1-(4-((9-cyclopentyl-8-(phenylamino)-4,9-dihydro-3H-purin-2-yl)amino)phenyl)piperidin-4-yl)piperazin-1-yl)methyl)pyridin-2-yl)dihydropyrimidine-2,4(1H,3H)-dione], the IC50 (PC-9; [2]) is reported as 1 to 10 nM, the IC50 [1, 4] is reported as 500 to 1000 nM and the IC50 (HCC827; [5]) is reported as 10 to 50 nM. For the same compound, the “Degradation … (substrate protein remaining %)” value (EGFR) was “A (A is defined as 0% ≤ substrate protein remaining % ≤ 80%)”.
For C=CC(=O)Nc1cc(Nc2nccc(-c3cn(C)c4ccccc34)n2)c(OC)cc1N(C)CCN(C)C [osimertinib, reference compound], the IC50 (PC-9; Homo sapiens, PC-9, 96 h) was 10 to 50 nM, the IC50 (H1975; Homo sapiens, NCI-H1975, 96 h) was 100 to 500 nM and the IC50 ([1]; Homo sapiens, NCI-H1975, read-out: Inhibitory activity (IC50) on tumor cell proliferation, H1975-1µm Osimertinib) was > 10000 nM. For the same compound, the IC50 (HCC827; Homo sapiens, HCC827, 96 h) was 10 to 50 nM.
